Results reported in US11325937B2, “Glycoside compound and preparation method therefor, composition, application, and intermediate” (SHANGHAI HUTCHISON PHARMACEUTICALS LIMITED, priority 2018, dated 2022).

Test system: VEGF-A mRNA expression in macrophages (RAW264.7)
Test: In vitro macrophage experiment: activity of compounds to promote VEGF-A mRNA expression (RT-qPCR)
Assay type: cell-based
Conditions: Mus musculus, RAW264.7 macrophages, 3 h, relative expression, no drug = 1, read-out: Expression level of VEGF-A mRNA; for fold induction at 500 µM: 0.5 mM; for fold induction at 1000 µM: 1 mM; for fold induction at 2000 µM: 2 mM; for fold induction at 3000 µM: 3 mM; for fold induction at 4000 µM: 4 mM
How it was run: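 RAW264.7 macrophages were exposed to test compounds at various concentrations for 3 h at 37° C. VEGF-A mRNA was measured by SYBR Green RT-qPCR, normalized to β-Actin, and expressed as 2^−ΔΔCt relative to untreated cells (=1). Activity is the maximal fold induction, with ≥4 as hit criterion.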

Row | Structure (SMILES) | fold induction at 500 µM | fold induction at 1000 µM | fold induction at 2000 µM | fold induction at 3000 µM | fold induction at 4000 µM
1 | COc1ccc(CCCCO[C@@H]2O[C@H](CO)[C@@H](O)[C@H](O)[C@H]2O)cc1 [TG-028] | 0.79 | 0.39 | 6.77 | 13.4 | 4.23
2 | OC[C@H]1O[C@@H](OCCc2ccccc2)[C@H](O)[C@@H](O)[C@@H]1O [TG-055] | 6.36 | 2.11 | 4.44 | 3.81 | 6.11
